Article PMC11440035, “Interaction of myricetin, ampelopsin (dihydromyricetin), and their sulfate metabolites with serum albumin, cytochrome P450 (CYP2C9, 2C19, and 3A4) enzymes, and organic anion‐transporting polypeptides (OATP1B1 and OATP2B1)” (Pharmacology Research & Perspectives, 2024)
Where two headings read alike, the source gives them in different places.

How the values were obtained:
OATP2B1 [1] = molecular target: T1, OATP2B1 (Homo sapiens, UniProt O94956); test: Uptake of flavonoids by A431-OATP2B1 versus mock cells (APB fluorescence); type: cell-based; conditions: for cellular flavonoid level in OATP2B1‐overexpressing versus mock control cells: 10 μM flavonoid, 15 min, 37°C; for substrate of OATP2B1: conclusion from uptake studies
T1 construct: expressed in transfected cells; host or cells: A431
T1 sequence (O94956 1-709): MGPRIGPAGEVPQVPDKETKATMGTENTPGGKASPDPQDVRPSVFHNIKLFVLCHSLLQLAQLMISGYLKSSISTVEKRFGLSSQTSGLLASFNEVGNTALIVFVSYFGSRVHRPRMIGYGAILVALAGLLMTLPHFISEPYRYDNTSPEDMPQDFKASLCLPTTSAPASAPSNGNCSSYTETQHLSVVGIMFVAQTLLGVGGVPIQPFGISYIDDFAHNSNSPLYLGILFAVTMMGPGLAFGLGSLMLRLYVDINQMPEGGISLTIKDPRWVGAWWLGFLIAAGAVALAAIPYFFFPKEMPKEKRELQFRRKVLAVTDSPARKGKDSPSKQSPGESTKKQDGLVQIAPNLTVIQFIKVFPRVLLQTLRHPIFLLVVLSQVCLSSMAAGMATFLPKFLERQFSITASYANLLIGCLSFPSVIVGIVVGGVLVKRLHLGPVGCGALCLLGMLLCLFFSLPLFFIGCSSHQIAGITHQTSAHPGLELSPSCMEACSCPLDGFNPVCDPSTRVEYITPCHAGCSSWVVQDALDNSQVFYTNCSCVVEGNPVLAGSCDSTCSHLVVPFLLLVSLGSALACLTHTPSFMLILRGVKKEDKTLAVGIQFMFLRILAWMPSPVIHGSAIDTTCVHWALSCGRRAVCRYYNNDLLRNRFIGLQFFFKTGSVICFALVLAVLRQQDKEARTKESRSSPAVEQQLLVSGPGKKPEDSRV
Method: Direct uptake of AMP, MYR, and their sulfate metabolites were examined in A431 cells overexpressing OATP1B1 or OATP2B1, and in their mock‐transfected controls using APB as a fluorescence enhancer. One day before the uptake measurements, the cells were seeded onto 96‐well plates at a density of 80 000 cells/well in DMEM (200 μL). The following day, the cell culture medium was removed, and the cells were rinsed thrice with PBS (200 μL). Thereafter, the cells were preincubated with HBSS (50 μL) for 5 min at 37°C. The uptake reaction was initiated by the addition of a further 50 μL of HBSS containing AMP, MYR, or their sulfate conjugates (10 μM). After incubating for 15 min at 37°C, the reaction was stopped by removing the supernatant and rinsing the cells three times with ice‐cold PBS. Then PBS buffer (200 μL) containing APB (250 μg/mL) and BSA (1 mg/mL) was added to each well.[35] The fluorescence was read using an Enspire plate reader using the wavelengths listed in Section 2.7.
The concentration‐dependent uptake of M3′S was also tested under the same conditions, except the cells were incubated with 0–10 μM M3′S for 2 min (OATP1B1) or 5 min (OATP2B1).
To test the effect of BSP (a known inhibitor of OATPs[44]) on the cellular uptake of M3′S, cells were preincubated with HBSS buffer (50 μL) with or without BSP (20 μM) for 5 min at 37°C. Thereafter, we added 50 μL of HBSS containing M3′S (final concentration: 2 μM), and cells were further incubated at 37°C for 2 min (OATP1B1) or 5 min (OATP2B1). The reaction was stopped by removing the supernatant. After washing the cells with ice‐cold PBS, a PBS buffer with APB/BSA was added. Fluorescence was determined by applying an Enspire plate reader at excitation/emission wavelengths of 480/540 nm.

OATP2B1 [2] = tested on: OATP2B1; set-up: method as in PMID 37252098, PMID 28745105; conditions: cited from earlier work
[3] = cited from earlier work
OATP1B1 = conditions: cited from earlier work
[4] = cited from earlier work; remark: listed apart in the source
CYP2C19 = tested on: T2, CYP2C19; test: CYP2C19 assay ((S)‐mephenytoin hydroxylation), CypExpress human kit; type: biochemical; conditions: probe (S)‐mephenytoin, 20 μM flavonoid, 5 μM substrate, read-out: inhibitory action on CYP2C19‐mediated (S)‐mephenytoin hydroxylation
T2 construct: purchased Merck (Darmstadt, Germany)
Method: The isocratic elution was carried out with sodium acetate buffer (6.9 mM, pH 4) and acetonitrile (72:28 v/v%) as the mobile phase. (S)‐Mephenytoin and 4‐hydroxymephenytoin were detected at 230 nm.

[5] = set-up: method as in PMID 26032587; conditions: double‐blind randomized controlled clinical trial; cited from earlier work

substrate of OATP2B1 (OATP2B1 [1]) | concentration‐dependent uptake in OATP2B1‐overexpressing cells (OATP2B1 [1]; 0–10 μM, 5 min) | inhibition at 20 μM (CYP2C19) | Compound | cellular flavonoid level in OATP2B1‐overexpressing versus mock control cells (OATP2B1 [1]) | inhibitory effects on OATP2B1‐dependent transport of 4′,5′‐dibromofluorescein and estrone 3‐sulfate (OATP2B1 [2]) | oral bioavailability ([3]; MYR, rats) | peak plasma concentrations of MYR and its (sulfate and glucuronide) metabolites together ([3]; rats, per os 100 mg/kg MYR) | decrease in the OATP1B1‐mediated transport of dehydroepiandrosterone sulfate and fluvastatin (OATP1B1; 50 μM MYR) | IC50 (OATP1B1; read-out: IC50, OATP1B1, 2′,7′‐dichlorofluorescein uptake) | effect on plasma levels of tolbutamide (CYP2C9 substrate) and midazolam (CYP3A4 substrate) ([4]; rat experiment) | effect of peroral co‐administration on docetaxel pharmacokinetics ([4]; rat study) | effect in patients with nonalcoholic fatty liver disease [5] | oral bioavailability ([3]; AMP, rat studies) | peak plasma concentrations of the aglycone ([3]; rats, peroral 100 mg/kg AMP)
not substrates |  |  | O=C1c2c(O)cc(O)cc2OC(c2cc(O)c(OS(=O)(=O)O)c(O)c2)C1O (centres unmarked) [A4′S, ampelopsin‐4′‐O‐sulfate] | did not show statistically significant differences |  |  |  |  |  |  |  |  |  | 
substrate | saturable uptake |  | O=c1c(O)c(-c2cc(O)c(O)c(OS(=O)(=O)O)c2)oc2cc(O)cc(O)c12 [M3′S, myricetin‐3′‐O‐sulfate] | almost five‐fold |  |  |  |  |  |  |  |  |  | 
not substrates |  | 5% | O=C1c2c(O)cc(O)cc2O[C@H](c2cc(O)c(O)c(O)c2)[C@H]1O [AMP, ampelopsin] | did not show statistically significant differences |  |  |  |  |  |  |  | improved glucose and lipid metabolism | approximately 4% | 300 to 500 nM

Compound | substrate of OATP2B1 (OATP2B1 [1]) | concentration‐dependent uptake in OATP2B1‐overexpressing cells (OATP2B1 [1]; 0–10 μM, 5 min) | inhibition at 20 μM (CYP2C19) | cellular flavonoid level in OATP2B1‐overexpressing versus mock control cells (OATP2B1 [1]) | inhibitory effects on OATP2B1‐dependent transport of 4′,5′‐dibromofluorescein and estrone 3‐sulfate (OATP2B1 [2]) | oral bioavailability ([3]; MYR, rats) | peak plasma concentrations of MYR and its (sulfate and glucuronide) metabolites together ([3]; rats, per os 100 mg/kg MYR) | decrease in the OATP1B1‐mediated transport of dehydroepiandrosterone sulfate and fluvastatin (OATP1B1; 50 μM MYR) | IC50 (OATP1B1; read-out: IC50, OATP1B1, 2′,7′‐dichlorofluorescein uptake) | effect on plasma levels of tolbutamide (CYP2C9 substrate) and midazolam (CYP3A4 substrate) ([4]; rat experiment) | effect of peroral co‐administration on docetaxel pharmacokinetics ([4]; rat study) | effect in patients with nonalcoholic fatty liver disease [5] | oral bioavailability ([3]; AMP, rat studies) | peak plasma concentrations of the aglycone ([3]; rats, peroral 100 mg/kg AMP)
O=c1c(O)c(-c2cc(O)c(O)c(O)c2)oc2cc(O)cc(O)c12 [MYR, myricetin] | not substrates |  |  | did not show statistically significant differences | only weak inhibitory effects | less than 10% | 8 µM | approximately 35% | 5.8 µM | increased the plasma levels of tolbutamide | increased the oral bioavailability and peak plasma concentration of the drug |  |  | 
